Data from ChEMBL document CHEMBL1125952, “Prevention of human leukocyte elastase-mediated lung damage by 3-alkyl-4-azetidinones” (1991).

What was measured:
Cricetinae gen. sp. [1] = test: Compound at dose 20 ug was tested for percentage inhibition of HLE-induced Lung Hemorrhage in hamsters at 1 hr prior to installation of human leukocyte elastase; format: functional, Cricetulus griseus
Cricetinae gen. sp. [2] = test: Compound at dose 20 ug was tested for percentage inhibition of HLE-induced Lung Hemorrhage in hamsters at 2 hr prior to installation of human leukocyte elastase; format: functional, Cricetulus griseus
Cricetinae gen. sp. [3] = test: Compound at dose 20 ug was tested for percentage inhibition of HLE-induced Lung Hemorrhage in hamsters at 3 hr prior to installation of human leukocyte elastase; format: functional, Cricetulus griseus
Cricetinae gen. sp. [4] = test: Compound at dose 20 ug was tested for percentage inhibition of HLE-induced Lung Hemorrhage in hamsters at 4 hr prior to installation of human leukocyte elastase; format: functional, Cricetulus griseus
Cricetinae gen. sp. [5] = test: Effective dose administered intratracheally required to give 50% inhibition at 30 minutes prior to installation of human leukocyte elastase in hamster lung; format: functional, Cricetulus griseus
[6] = biological target: T1, Neutrophil elastase (Homo sapiens) (UniProt P08246); test: Inhibition of human leukocyte elastase-induced lung hemorrhage in hamster, after 100 ug of compound administered intratracheally.; format: functional, tissue-based
T1 sequence (whole entry): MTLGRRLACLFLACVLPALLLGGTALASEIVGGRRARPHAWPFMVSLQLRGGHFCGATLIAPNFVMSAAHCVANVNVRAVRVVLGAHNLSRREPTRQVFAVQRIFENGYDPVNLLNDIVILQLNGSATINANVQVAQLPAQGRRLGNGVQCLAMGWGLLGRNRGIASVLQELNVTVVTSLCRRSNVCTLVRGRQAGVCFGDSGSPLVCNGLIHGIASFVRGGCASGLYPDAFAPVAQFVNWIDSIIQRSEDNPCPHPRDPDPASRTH

[7] = biological target: T1, Neutrophil elastase (Homo sapiens); test: Inhibition of human leukocyte elastase, expressed as biomolecular rate constant.

Compound | Inhibition (Cricetinae gen. sp. [1]) [%] | Inhibition (Cricetinae gen. sp. [2]) [%] | Inhibition (Cricetinae gen. sp. [3]) [%] | Inhibition (Cricetinae gen. sp. [4]) [%] | ED50 (Cricetinae gen. sp. [5]) [µg] | inhibition [6] [%] | K obs / 1 [7] [M⁻¹ s⁻¹]
CCC1C(=O)N(S(=O)(=O)c2ccc(C)cc2)C1C(=O)OCC(=O)O (cis isomer) [listing 1 of 2 here] | 66 | 32 | 11 | 30 | 24.6 | – | –
CCC1C(=O)N(S(=O)(=O)c2ccc(C)cc2)C1C(=O)OCC(=O)O (cis isomer) [listing 2 of 2 here] | – | – | – | – | – | 73 | 1550
CC[C@@H]1C(=O)N(C(=O)NCc2ccccc2)[C@H]1Oc1ccc(C(=O)O)cc1 | – | – | – | – | – | 17 | 339
CCC1C(=O)N(S(=O)(=O)c2ccc(C)cc2)C1C(=O)O (cis isomer) | – | – | – | – | – | 80 | 93
CCOC(=O)N1C(=O)C(CC)C1SCC(=O)O (trans isomer) | – | – | – | – | – | 56 | 1090
CCC1C(=O)N(C(=O)NCc2ccccc2)C1Oc1ccc(CC(=O)O)cc1 (trans isomer) | – | – | – | – | – | – | 2070
CC[C@H]1C(=O)N(C(=O)NCc2ccccc2)[C@@H]1Oc1ccc(C(=O)O)cc1 | – | – | – | – | – | 2 | 3840
CCOC(=O)N1C(=O)C(CC)C1OCC(=O)O (cis isomer) | – | – | – | – | – | 81 | 796
CCOC(=O)N1C(=O)C(CC)C1OCCC(=O)O (trans isomer) | – | – | – | – | – | 31 | 560
CC[C@@H]1C(=O)N(S(=O)(=O)c2ccc(C)cc2)[C@H]1C(=O)N(C)CC(=O)O | – | – | – | – | – | 74 | 398
CCOC(=O)N1C(=O)C(CC)C1S(=O)(=O)CC(=O)O (trans isomer) | – | – | – | – | – | 70 | 5620
CO[C@H]1C(=O)N2C(C(=O)N3CCC[C@H]3C(=O)O)=C(COC(C)=O)CS(=O)(=O)[C@H]12 | 98 | 85 | 74 | -23 | 3.1 | – | –
CCOC(=O)N1C(=O)C(CC)C1OCCCC(=O)O (trans isomer) | – | – | – | – | – | 23 | 1250
CC[C@H]1C(=O)N(S(=O)(=O)c2ccc(C)cc2)[C@@H]1C(=O)N(C)CC(=O)O | – | – | – | – | – | 99 | 271
CCOC(=O)N1C(=O)C(CC)C1Oc1ccc(C(=O)O)cc1 (trans isomer) | – | – | – | – | – | – | 6350
CCC1C(=O)N(C(=O)OCc2ccccc2)C1OCC(=O)O (trans isomer) | – | – | – | – | – | 51 | 955

Compound | Inhibition (Cricetinae gen. sp. [1]) [%] | Inhibition (Cricetinae gen. sp. [2]) [%] | Inhibition (Cricetinae gen. sp. [3]) [%] | Inhibition (Cricetinae gen. sp. [4]) [%] | ED50 (Cricetinae gen. sp. [5]) [µg] | inhibition [6] [%] | K obs / 1 [7] [M⁻¹ s⁻¹]
CCC1C(=O)N(C(=O)NCc2ccccc2)C1OCC(=O)O (stereo not given) | – | – | – | – | – | 50 | 129
CCCC1C(=O)N(C(=O)OCC)C1OCC(=O)O (stereo not given) | 83 | 31 | -17 | -2 | 6.3 | 88 | 1500
CCOC(=O)N1C(=O)[C@H](CC)[C@H]1OCC(=O)O | 100 | 82 | 59 | -14 | 3.9 | 99 | 918
CCOC(=O)N1C(=O)C(CC)C1Oc1ccc(CC(=O)O)cc1 (trans isomer) | – | – | – | – | – | – | 4100
CC[C@H]1C(=O)N(S(=O)(=O)c2ccc(C)cc2)[C@@H]1C(=O)O | 78 | 33 | 1 | 16 | 3 | 98 | 377
CC[C@H]1C(=O)N(S(=O)(=O)c2ccc(C)cc2)[C@H]1C(=O)N(C)CC(=O)O | – | – | – | – | – | 61 | 110
CCC1C(=O)N(S(=O)(=O)c2ccc(C)cc2)C1C(=O)N(C)CC(=O)O (cis isomer) | 78 | 68 | 60 | 4 | 18.7 | 84 | 165
CCOC(=O)N1C(=O)[C@@H](CC)[C@@H]1OCC(=O)O | 92 | 49 | 6 | -3 | 11.3 | 86 | 136
CCOC(=O)N1C(=O)C(CC)C1OCC(=O)O (trans isomer) [listing 1 of 2 here] | – | – | – | – | – | 98 | 467
CCOC(=O)N1C(=O)C(CC)C1OCC(=O)O (trans isomer) [listing 2 of 2 here] | 96 | 63 | 36 | -5 | 6.3 | – | –
CCOC(=O)N1C(=O)C(CC)C1OCC(=O)NCC(=O)O (stereo not given) | – | – | – | – | – | 72 | 1000
CCOC(=O)N1C(=O)C(CC)C1[S+]([O-])CC(=O)O (stereo not given) | – | – | – | – | – | 71 | 1670
CC[C@@H]1C(=O)N(S(=O)(=O)c2ccc(C)cc2)[C@@H]1C(=O)N(C)CC(=O)O | – | – | – | – | – | 94 | 732
CCC1C(=O)N(S(=O)(=O)c2ccc(C)cc2)C1C(=O)OCC(=O)O (stereo in doubt) | – | – | – | – | – | 14 | 9420
CCOC(=O)N1C(=O)C(CC)C1OC(C)C(=O)O (single isomer, unassigned; isomer A) | – | – | – | – | – | 71 | 346
CCOC(=O)N1C(=O)C(CC)C1OC(C)C(=O)O (single isomer, unassigned; isomer B) | – | – | – | – | – | 81 | 158
